Measured values reported in US20250282735A1, “BICYCLE COMPOUNDS AS TEAD INHIBITOR” (DONG-A ST CO., LTD., priority 2022, published 2025).

Experiments:
Format in all cases: cell-based
[1] = tested on: MSTO-211H cells; experiment: Proliferation assay (EdU incorporation), MSTO-211H; details: Homo sapiens, 72 h, YAP-driven MSTO-211H (LATS1 mutation), 3 days with inhibitor, 1% serum
Description: (§1) The anti-proliferative activity of TEAD inhibitors was evaluated in cells with different properties for YAP; “YAP-driven” cells (MSTO-211H, NCI-H226) in which YAP located in the nucleus and “YAP-independent” cells (OCM1, NCI-H28) where YAP located in the cytoplasm. […] TEAD inhibitors were evaluated with cell lines with these YAP profiling and mutational status.
(§2) The next day, replace it with cell starvation medium containing 1% serum. After one day of growth in the starvation medium, the cells were incubated for 3 days with TEAD inhibitors in a concentration range of 0.01-10 μM. After 3 days, EdU (Invitrogen) at a concentration of 10 µM was added to the starvation medium and incubated for an additional 24 hours. After removing the starvation medium remaining in each well, wash the wells with PBS. Cells were fixed with 4% paraformaldehyde (Electron microscopy sciences) at room temperature for 20 minutes. After removing the fix solution remaining in each well, wash the wells with PBS and the cells were permeabilized for 40 minutes by adding 0.5% triton X-100 (Sigma Aldrich). After removing the permeabilization solution remaining in each well, the EdU labeling was performed according to the instructions of the manufacturer's instructions (Click-iT™ Cell Reaction Buffer Kit, Invitrogen). After the Click reaction for EdU labeling, nuclei were stained with […] (Thermo Scientific) for total cell count analysis. After plate preparation for detection, Image acquisition was performed using the ImageXpress Micro XLS. The acquired images were analyzed using MetaXpress software (molecular devices). Through this experimental method, it was possible to confirm the inhibitory activity of TEAD inhibitors by detection EdU incorporated into proliferating cells.
(§3) IC50 for cell proliferation inhibition activity are shown in the Table 2 below and designated within the following ranges. [+++: ≤0.1 μM, ++: >0.1 μM to ≤1 μM, +: >1 μM to ≤10μ, −: >10 μM]

[2] = tested on: TEAD reporter-containing human breast cancer cell line MCF7; experiment: TEAD reporter (luciferase) assay; details: TEAD reporter MCF7 cells, 24 hours treatment, 1% serum media
Method in brief: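 Cells plated at 30,000/well overnight, then treated 24 h in 1% serum medium with 0.1% DMSO. CCK-8 viability read at 450 nm, then Dual-Glo luciferase luminescence; IC50 from non-linear regression of dose-response curves.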

[3] = tested on: NCI-H226 cells; experiment: Proliferation assay (EdU incorporation), NCI-H226; details: Homo sapiens, 72 h, YAP-driven NCI-H226 (NF2 mutation), 3 days with inhibitor, 1% serum
Description: as §1, §2, §3

SMILES	IC50 [2]	IC50 [3]	IC50 [1]
C=CC(=O)Nc1ccc2c(c1)c(/C=C/C1CCC(F)(F)CC1)cn2C [Compound 21, (E)-N-(3-(2-(4,4-Difluorocyclohexyl)vinyl)-1-methyl-1H-indol-5-yl)acrylamide]	≤ 100 nM	100 to 1000 nM	100 to 1000 nM
C=CC(=O)Nc1ccc2c(c1)c(/C=C/c1ccc(Cl)cc1)cn2C [Compound 22, (E)-N-(3-(4-Chlorostyryl)-1-methyl-1H-indol-5-yl)acrylamide]	100 to 1000 nM	100 to 1000 nM	100 to 1000 nM
C=CC(=O)Nc1ccc2c(c1)c(/C=C/c1ccc(F)cc1)cn2C [Compound 24, (E)-N-(3-(4-Fluorostyryl)-1-methyl-1H-indol-5-yl)acrylamide]	100 to 1000 nM	≤ 100 nM	100 to 1000 nM
C=CC(=O)Nc1ccc2c(c1)c(/C=C/C1CCC(F)(F)CC1)cn2CC [Compound 25, (E)-N-(3-(2-(4,4-Difluorocyclohexyl)vinyl)-1-ethyl-1H-indol-5-yl)acrylamide]	≤ 100 nM	100 to 1000 nM	≤ 100 nM
C=CC(=O)Nc1cnc2c(c1)c(/C=C/c1ccc(Cl)cc1)nn2C [Compound 31, (E)-N-(3-(4-Chlorostyryl)-1-methyl-1H-pyrazolo[3,4-b]pyridin-5-yl)acrylamide]	100 to 1000 nM	≤ 100 nM	≤ 100 nM
C=CC(=O)Nc1cnc2c(c1)c(-c1ccc(Cl)c(F)c1)cn2C [Example 87, N-(3-(4-Chloro-3-fluorophenyl)-1-methyl-1H-pyrrolo[2,3-b]pyridin-5-yl)acrylamide]	100 to 1000 nM	≤ 100 nM	≤ 100 nM
C=CC(=O)Nc1cnc2c(c1)c(-c1ccc(F)c(Cl)c1)cn2C [Example 97, N-(3-(3-Chloro-4-fluorophenyl)-1-methyl-1H-pyrrolo[2,3-b]pyridin-5-yl)acrylamide]	100 to 1000 nM	≤ 100 nM	≤ 100 nM

Further lines, with some results ahead:

IC50 [2]	IC50 [3]	SMILES	IC50 [1]
100 to 1000 nM	≤ 100 nM	C=CC(=O)Nc1cnc2c(c1)c(/C=C/c1ccc(Cl)cc1)cn2C [Compound 16, (E)-N-(3-(4-Chlorostyryl)-1-methyl-1H-pyrrolo[2,3-b]pyridin-5-yl)acrylamide]	≤ 100 nM
1000 to 10000 nM	≤ 100 nM	C=CC(=O)Nc1cnc2c(c1)c(/C=C/c1ccc(Cl)cc1)cn2CC [Compound 18, (E)-N-(3-(4-Chlorostyryl)-1-ethyl-1H-pyrrolo[2,3-b]pyridin-5-yl)acrylamide]	≤ 100 nM
≤ 100 nM	≤ 100 nM	C=CC(=O)Nc1cnc2c(c1)c(/C=C/C1CCC(F)(F)CC1)cn2C(C)C [Compound 19, (E)-N-(3-(2-(4,4-Difluorocyclohexyl)vinyl)-1-isopropyl-1H-pyrrolo[2,3-b]pyridin-5-yl)acrylamide]	100 to 1000 nM
100 to 1000 nM	≤ 100 nM	C=CC(=O)Nc1ccc2c(c1)c(/C=C/c1ccc(Cl)cc1)cn2C(C)C [Compound 28, (E)-N-(3-(4-Chlorostyryl)-1-isopropyl-1H-indol-5-yl)acrylamide]	100 to 1000 nM
≤ 100 nM	≤ 100 nM	C=CC(=O)Nc1cnc2c(c1)c(/C=C/C1CCC(F)(F)CC1)nn2C [Compound 30, (E)-N-(3-(2-(4,4-Difluorocyclohexyl)vinyl)-1-methyl-1H-pyrazolo[3,4-b]pyridin-5-yl)acrylamide]	100 to 1000 nM
≤ 100 nM	≤ 100 nM	C=CC(=O)Nc1cnc2c(c1)c(CCc1ccc(F)cc1)cn2C [Example 63, N-(3-(4-Fluorophenethyl)-1-methyl-1H-pyrrolo[2,3-b]pyridin-5-yl)acrylamide]	≤ 100 nM
100 to 1000 nM	≤ 100 nM	C=CC(=O)Nc1cnc2c(c1)c(-c1ccc(CC)cc1)cn2C [Example 89, N-(3-(4-Ethylphenyl)-1-methyl-1H-pyrrolo[2,3-b]pyridin-5-yl)acrylamide]	≤ 100 nM
≤ 100 nM	≤ 100 nM	C=CC(=O)Nc1cnc2c(c1)c(-c1ccc(F)c(C(F)(F)F)c1)cn2C [Example 92, N-(3-(4-Fluoro-3-(trifluoromethyl)phenyl)-1-methyl-1H-pyrrolo[2,3-b]pyridin-5-yl)acrylamide]	≤ 100 nM
100 to 1000 nM	≤ 100 nM	C=CC(=O)Nc1cnc2c(c1)c(-c1ccc(C(C)C)cc1)cn2C [Example 93, N-(3-(4-Isopropylphenyl)-1-methyl-1H-pyrrolo[2,3-b]pyridin-5-yl)acrylamide]	≤ 100 nM
1000 to 10000 nM	≤ 100 nM	C=CC(=O)Nc1cnc2c(c1)c(-c1ccc(Cl)cc1)cn2C [Example 98, N-(3-(4-Chlorophenyl)-1-methyl-1H-pyrrolo[2,3-b]pyridin-5-yl)acrylamide]	≤ 100 nM
